From the supplement of paper PMC10307832

Experiments:
Test in all cases: relative viability (nuclei count vs DMSO), 5 days (fraction); higher = more cells survive
GSK-J4 + Trametinib = compound: CCOC(=O)CCNc1cc(N2CCc3ccccc3CC2)nc(-c2ccccn2)n1 [GSK-J4] + CC(=O)Nc1cccc(-n2c(=O)n(C3CC3)c(=O)c3c(Nc4ccc(I)cc4F)n(C)c(=O)c(C)c32)c1 [Trametinib] (partner 0.02 µM)
How it was run: (§1)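 For relative viability, nuclei counts in treated wells were divided by those in vehicle wells. Lung cancer cell lines had been pin-tool dosed in 1536-well plates the day after seeding and cultured for 5 days, then fixed and stained in one step (final 0.05% Triton X-100, 1% formaldehyde, 1 ug/ml Hoechst) and imaged at 4×. Doses were one drug alone or a fixed anchor-drug dose plus five library-drug doses (not always all listed) in √10 steps, and values are duplicate-plate medians.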

GSK-J4 + Palbociclib = compound: CCOC(=O)CCNc1cc(N2CCc3ccccc3CC2)nc(-c2ccccn2)n1 [GSK-J4] + CC(=O)c1c(C)c2cnc(Nc3ccc(N4CCNCC4)cn3)nc2n(C2CCCC2)c1=O [Palbociclib] (partner 0.5 µM)
How it was run: as §1

GSK-J4 + Navitoclax = compound: CCOC(=O)CCNc1cc(N2CCc3ccccc3CC2)nc(-c2ccccn2)n1 [GSK-J4] + CC1(C)CCC(c2ccc(Cl)cc2)=C(CN2CCN(c3ccc(C(=O)NS(=O)(=O)c4ccc(N[C@H](CCN5CCOCC5)CSc5ccccc5)c(S(=O)(=O)C(F)(F)F)c4)cc3)CC2)C1 [Navitoclax] (partner 0.5 µM)
How it was run: as §1

GSK-J4 + Linsitinib = compound: CCOC(=O)CCNc1cc(N2CCc3ccccc3CC2)nc(-c2ccccn2)n1 [GSK-J4] + C[C@]1(O)C[C@@H](c2nc(-c3ccc4ccc(-c5ccccc5)nc4c3)c3c(N)nccn32)C1 [Linsitinib] (partner 1 µM)
How it was run: as §1

Cell Line | relative viability (GSK-J4 + Trametinib; first compound 0.5 µM) | relative viability (GSK-J4 + Trametinib; first compound 1.581 µM) | relative viability (GSK-J4 + Trametinib; first compound 5 µM) | relative viability (GSK-J4 + Trametinib; first compound 15.81 µM) | relative viability (GSK-J4 + Trametinib; first compound 50 µM) | relative viability (GSK-J4 + Palbociclib; first compound 0.5 µM) | relative viability (GSK-J4 + Palbociclib; first compound 5 µM) | relative viability (GSK-J4 + Palbociclib; first compound 15.81 µM) | relative viability (GSK-J4 + Palbociclib; first compound 50 µM) | relative viability (GSK-J4 + Navitoclax; first compound 0.5 µM) | relative viability (GSK-J4 + Navitoclax; first compound 1.581 µM) | relative viability (GSK-J4 + Navitoclax; first compound 5 µM) | relative viability (GSK-J4 + Navitoclax; first compound 15.81 µM) | relative viability (GSK-J4 + Navitoclax; first compound 50 µM) | relative viability (GSK-J4 + Linsitinib; first compound 0.5 µM) | relative viability (GSK-J4 + Linsitinib; first compound 1.581 µM) | relative viability (GSK-J4 + Linsitinib; first compound 5 µM) | relative viability (GSK-J4 + Linsitinib; first compound 15.81 µM) | relative viability (GSK-J4 + Linsitinib; first compound 50 µM) | relative viability (GSK-J4 + Palbociclib; first compound 1.581 µM)
NCI-H1792 | 0.523 | 0.44 | 0.468 | 0.39 | 0.38 | 0.622 | 0.773 | 0.569 | 0.668 | 0.621 | 0.571 | 0.574 | 0.567 | 0.514 | 0.543 | 0.296 | 0.518 | 0.465 | 0.635 | –
NCI-H1793 | 0.432 | 0.375 | 0.336 | 0.28 | 0.228 | 0.298 | 0.28 | 0.204 | 0.162 | 0.389 | 0.473 | 0.379 | 0.307 | 0.273 | 0.973 | 0.71 | 0.94 | 0.594 | 0.493 | 0.264
NCI-H1915 | 0.299 | 0.302 | – | 0.28 | 0.293 | 0.533 | – | 0.481 | 0.514 | 0.759 | 0.713 | 0.747 | 0.715 | 0.765 | 1.06 | 0.722 | 1.09 | 1.07 | 1.11 | 0.514
NCI-H1944 | 0.4 | 0.394 | – | 0.307 | 0.357 | 0.378 | – | 0.274 | 0.342 | 1.06 | 0.953 | 1.15 | 0.913 | 1 | 1.2 | 0.977 | 1.22 | 1.22 | 1.2 | 0.334
NCI-H1975 | 0.356 | 0.262 | 0.296 | 0.329 | 0.264 | 0.543 | 0.613 | 0.524 | 0.634 | 1.05 | 1.11 | – | 1.04 | 1.15 | 0.871 | 0.934 | – | 0.982 | 1.17 | 0.498
NCI-H1993 | 0.514 | 0.504 | 0.497 | 0.544 | 0.532 | 0.588 | 0.606 | 0.542 | 0.481 | 1.14 | 0.951 | 1.13 | 0.866 | 0.681 | 0.694 | 0.752 | 0.814 | 0.779 | 0.785 | 0.623
NCI-H2009 | 0.262 | 0.266 | 0.195 | 0.252 | 0.199 | 0.242 | 0.223 | 0.216 | 0.202 | 1.14 | 1.12 | 0.951 | 1.14 | 0.882 | 1.19 | 0.873 | 0.983 | 1.17 | 0.947 | 0.166
NCI-H2023 | 0.559 | 0.591 | 0.59 | 0.475 | 0.431 | 0.317 | 0.385 | 0.41 | 0.435 | 0.921 | 0.976 | 1.08 | 0.991 | 0.915 | 0.658 | 0.675 | 0.815 | 0.582 | 0.674 | 0.371
NCI-H2085 | 0.482 | 0.663 | 0.586 | 0.517 | 0.57 | 0.451 | 0.386 | 0.495 | 0.494 | 0.971 | 1.12 | 1.13 | 1.09 | 0.999 | 0.801 | 0.812 | 0.926 | 0.874 | 0.771 | 0.434
NCI-H2087 | 0.189 | 0.171 | 0.257 | 0.169 | 0.222 | 0.256 | 0.282 | 0.24 | 0.227 | 0.795 | 1.08 | – | 0.99 | 0.758 | 0.791 | 0.94 | – | 0.864 | 0.641 | 0.243
NCI-H2126 | 0.567 | 0.575 | 0.566 | 0.503 | 0.503 | 0.374 | 0.356 | 0.333 | 0.358 | 0.823 | 0.842 | 0.849 | 0.72 | 0.709 | 0.735 | 0.705 | 0.732 | 0.677 | 0.725 | 0.397
NCI-H2228 | 0.523 | 0.526 | 0.48 | 0.415 | 0.334 | 0.672 | 0.817 | 0.784 | 0.722 | 1.1 | 0.868 | 1.07 | 0.8 | 0.871 | 0.483 | 0.721 | 0.748 | 0.746 | 1.04 | 0.765
NCI-H2347 | 0.25 | 0.273 | 0.275 | 0.32 | 0.285 | 0.448 | 0.411 | 0.436 | 0.419 | 0.7 | 0.746 | 0.774 | 0.829 | 0.608 | 0.829 | 0.78 | 0.885 | 0.961 | 0.651 | 0.374
NCI-H2405 | 0.586 | 0.63 | – | 0.48 | 0.749 | 0.525 | – | 0.522 | 0.508 | 0.835 | 0.848 | – | 0.952 | 0.928 | 1.03 | 0.919 | – | 1.07 | 1.1 | 0.458
NCI-H3122 | 0.223 | 0.266 | 0.222 | 0.273 | 0.193 | 0.18 | 0.181 | 0.177 | 0.191 | 1.02 | 1 | 1.02 | 1.04 | 0.973 | 0.939 | 1.04 | 1.04 | 0.998 | 0.98 | 0.2
PC-3 [JPC-3] | 0.783 | 0.551 | 0.598 | 0.647 | 0.64 | 0.499 | 0.512 | 0.497 | 0.514 | 0.77 | 0.742 | 0.787 | 0.743 | 0.753 | 0.883 | 0.928 | 0.961 | 0.908 | 0.945 | 0.511
PC-14 | 0.68 | 0.663 | 0.503 | 0.738 | 0.691 | 0.471 | 0.454 | 0.518 | 0.544 | 0.939 | 1.02 | 0.948 | 1.02 | 0.926 | 0.909 | 0.918 | 0.86 | 0.915 | 1.05 | 0.624
